Assay results taken from publication PMC12000319, “Proton conductance by human uncoupling protein 1 is inhibited by purine and pyrimidine nucleotides” (The EMBO Journal, 2025).
“And” between values parts separate entries of the source, which are not always exact repeats. Equal entries are not always repeated. Where two headings read alike, the source gives them in different places.

What was measured:
[1] = target: T1, UCP1 (Homo sapiens, UniProt P25874); test: Differential scanning fluorimetry (nanoDSF) thermal stability shift assay; format: binding; settings: for ΔTm at 1000 µM: read-out: thermal shift (ΔTm)
T1 construct: His8 (N, cleaved yes); Factor Xa protease cleavage site (N, cleaved yes); made in house; host or cells: Saccharomyces cerevisiae strain W303.1B
T1 sequence (P25874 1-307): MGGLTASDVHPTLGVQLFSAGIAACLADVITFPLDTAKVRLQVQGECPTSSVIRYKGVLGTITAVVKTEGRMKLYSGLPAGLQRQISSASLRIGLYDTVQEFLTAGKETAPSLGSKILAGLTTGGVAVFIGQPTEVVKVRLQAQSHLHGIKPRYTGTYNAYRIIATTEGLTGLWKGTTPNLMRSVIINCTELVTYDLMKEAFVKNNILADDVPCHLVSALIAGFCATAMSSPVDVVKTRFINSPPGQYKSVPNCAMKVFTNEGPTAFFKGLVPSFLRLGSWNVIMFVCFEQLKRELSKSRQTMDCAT

[2] = target: T2, human DIC (SLC25A10) (Homo sapiens, UniProt Q9UBX3); test: as above; format: binding; settings: 1 mM nucleotide, pH 6.0, single repeats (source data Fig. 4A)
T2 construct: His8 (N, cleaved yes); Factor Xa protease cleavage site (N, cleaved yes); made in house; host or cells: Saccharomyces cerevisiae protease-deficient strain BJ2186
T2 sequence (Q9UBX3 1-287): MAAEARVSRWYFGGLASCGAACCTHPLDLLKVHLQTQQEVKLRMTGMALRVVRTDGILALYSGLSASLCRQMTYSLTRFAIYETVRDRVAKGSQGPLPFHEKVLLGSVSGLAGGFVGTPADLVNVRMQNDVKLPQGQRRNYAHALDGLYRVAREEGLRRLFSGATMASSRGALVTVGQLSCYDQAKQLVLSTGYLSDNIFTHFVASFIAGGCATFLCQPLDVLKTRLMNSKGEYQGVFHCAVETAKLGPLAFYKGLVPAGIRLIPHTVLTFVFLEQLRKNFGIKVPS

[3] = target: T1, UCP1; test: Isothermal titration calorimetry of nucleotide binding; parameters: isotherm data point (enthalpy change per injection): unit not given here; settings: for isotherm data point (enthalpy change per injection): representative isotherm, pH 6.0, 20 °C;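 as to all read-outs here: purified human UCP1 in cacodylate buffer with lauryl maltose neopentyl glycol and cardiolipin, titrated with nucleotides, isotherms fitted by one-site model yielding ΔH, Kd and stoichiometry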
[4] = test system: UCP1; parameters: method as in Heaton and Nicholls, 1977; Divakaruni et al, 2012; settings: whole mitochondria; ref Heaton and Nicholls, 1977; Divakaruni et al, 2012; cited from earlier work
[5] = test system: UCP1; parameters: method as in Heaton and Nicholls, 1977; settings: ref Heaton and Nicholls, 1977; cited from earlier work

temperature shift (ΔTm) ([1]; 1 mM nucleotide, pH 6.0, detergent-solubilised UCP1, mean of three biological repeats): 15.3 °C
effect of Ca2+ or Mg2+ on nucleotide binding to UCP1 (ΔTm) ([1]; 1 mM nucleotide, pH 6.0, range of Ca2+ or Mg2+ concentrations, until supramaximal concentrations): no difference for either cation
ΔTm at 1000 µM ([1]; pH 6, 1 mM nucleotide, pH 6.0, single repeats (source data Fig. 1D)): 15.7 °C
ΔTm at 1000 µM ([1]; pH 6.5, 1 mM nucleotide, pH 6.5, single repeats (source data Fig. 1D)): 11.1 °C
ΔTm at 1000 µM ([1]; pH 7, 1 mM nucleotide, pH 7.0, single repeats (source data Fig. 1D)): 6.3 °C
ΔTm at 1000 µM ([1]; pH 7.5, 1 mM nucleotide, pH 7.5, single repeats (source data Fig. 1D)): 1.4 °C
change in apparent melting temperature (ΔTm) of hDIC [2]: 0.8 and 0.6
binding affinity to UCP1 (in words) ([3]; ITC): intermediary affinities
isotherm data point (enthalpy change per injection) ([3]; Molar ratio (Nucleotide/UCP) 0.120417): -22.5081
isotherm data point (enthalpy change per injection) ([3]; Molar ratio (Nucleotide/UCP) 0.181226): -22.8003
isotherm data point (enthalpy change per injection) ([3]; Molar ratio (Nucleotide/UCP) 0.242439): -21.4037
isotherm data point (enthalpy change per injection) ([3]; Molar ratio (Nucleotide/UCP) 0.304059): -20.9646
isotherm data point (enthalpy change per injection) ([3]; Molar ratio (Nucleotide/UCP) 0.366087): -21.4794
isotherm data point (enthalpy change per injection) ([3]; Molar ratio (Nucleotide/UCP) 0.428528): -19.8691
isotherm data point (enthalpy change per injection) ([3]; Molar ratio (Nucleotide/UCP) 0.491383): -17.9061
isotherm data point (enthalpy change per injection) ([3]; Molar ratio (Nucleotide/UCP) 0.554656): -18.3443
isotherm data point (enthalpy change per injection) ([3]; Molar ratio (Nucleotide/UCP) 0.618348): -16.1153
isotherm data point (enthalpy change per injection) ([3]; Molar ratio (Nucleotide/UCP) 0.682464): -14.9337
isotherm data point (enthalpy change per injection) ([3]; Molar ratio (Nucleotide/UCP) 0.747006): -12.0255
isotherm data point (enthalpy change per injection) ([3]; Molar ratio (Nucleotide/UCP) 0.811976): -11.5031
isotherm data point (enthalpy change per injection) ([3]; Molar ratio (Nucleotide/UCP) 0.877378): -10.3349
isotherm data point (enthalpy change per injection) ([3]; Molar ratio (Nucleotide/UCP) 0.943214): -7.729
isotherm data point (enthalpy change per injection) ([3]; Molar ratio (Nucleotide/UCP) 1.00949): -6.6657
isotherm data point (enthalpy change per injection) ([3]; Molar ratio (Nucleotide/UCP) 1.0762): -5.447
isotherm data point (enthalpy change per injection) ([3]; Molar ratio (Nucleotide/UCP) 1.14336): -3.759
isotherm data point (enthalpy change per injection) ([3]; Molar ratio (Nucleotide/UCP) 1.21096): -3.295
isotherm data point (enthalpy change per injection) ([3]; Molar ratio (Nucleotide/UCP) 1.27901): -1.9786
isotherm data point (enthalpy change per injection) ([3]; Molar ratio (Nucleotide/UCP) 1.34751): -1.408
isotherm data point (enthalpy change per injection) ([3]; Molar ratio (Nucleotide/UCP) 1.41647): -0.3952
isotherm data point (enthalpy change per injection) ([3]; Molar ratio (Nucleotide/UCP) 1.48589): -0.4843
isotherm data point (enthalpy change per injection) ([3]; Molar ratio (Nucleotide/UCP) 1.55577): -0.1953
isotherm data point (enthalpy change per injection) ([3]; Molar ratio (Nucleotide/UCP) 1.62611): -0.1185
isotherm data point (enthalpy change per injection) ([3]; Molar ratio (Nucleotide/UCP) 1.69692): 0.2895
isotherm data point (enthalpy change per injection) ([3]; Molar ratio (Nucleotide/UCP) 1.76819): -0.544
isotherm data point (enthalpy change per injection) ([3]; Molar ratio (Nucleotide/UCP) 1.83995): -0.2075
isotherm data point (enthalpy change per injection) ([3]; Molar ratio (Nucleotide/UCP) 1.91217): -0.08977
isotherm data point (enthalpy change per injection) ([3]; Molar ratio (Nucleotide/UCP) 1.98488): 0.02152
SMILES: O=c1ccn([C@@H]2O[C@H](CO[P@@](=O)(O)O[P@@](=O)(O)OP(=O)(O)O)[C@@H](O)[C@H]2O)c(=O)[nH]1 (stereo in doubt) [UTP, uridine triphosphate]
competition with GDP binding [4]: could only weakly compete with GDP binding
inhibition of proton conductance [5]: significantly lower than that of purine nucleotides
